Assay results reported in patent US9745295B2, “Thiazole-substituted aminoheteroaryls as spleen tyrosine kinase inhibitors” (Merck Sharp & Dohme Corp., priority 2013, dated 2017).

Molecular target: T1, recombinant human GST-SYK (Homo sapiens, UniProt P43405)
T1 construct: purchased Carna Biosciences 08-176
Experiment: Homogeneous Time-Resolved Fluorescence (HTRF) assay for the recombinant human Syk enzyme
Assay type: biochemical
Settings: recombinant human GST-SYK 5 pM, ATP 25 μM, read-out: rhSYK IC50
Description: Homogeneous Time-Resolved Fluorescence (HTRF) Assay for the Recombinant Human Syk Enzyme
A recombinant GST-hSYK fusion protein was used to measure potency of compounds to inhibit human Syk activity. The recombinant human GST-SYK (Carna Biosciences #08-176) (5 pM final concentration) was incubated with various concentrations of the inhibitor diluted in DMSO (0.1% final concentration) for 10 minutes at room temperature in 15 mM Tris-HCl (pH 7.5), 0.01% tween 20, 2 mM DTT in 384 well plate format. To initiate the reaction the biotinylated substrate peptide (250 nM final concentration) that contains the phosphorylation site for Syk was added with magnesium (5 mM final concentration) and ATP (25 μM final concentration). Final volume of the reaction was 10 μL. Phosphorylation of the peptide was allowed to proceed for 45′ at room temperature. To quench the reaction and detect the phosphorylated product, 2 nM of a Europium-anti-phosphotyrosine antibody (Perkin Elmer #AD0161) and 70 nM SA-APC (Perkin-Elmer #CR130-100) were added together in 15 mM Tris pH 7.5, 40 mM EDTA, 0.01% tween 20. Final volume of the quenching solution was 10 μL.
The resulting HTRF signal was measured after 30 minutes on an EnVision (Perkin-Elmer) reader using a time-resolved fluorescence protocol. Table A below lists activities as IC50 values (nM) for representative compounds of the invention.

Row | IC50 [nM] | SMILES
1 | 0.42 | Cc1cc(Nc2cc(C(F)(F)F)ncn2)nc(-c2cnc([C@@]3(O)CC[C@H](C(N)=O)[C@H](C)C3)s2)c1 (relative stereo) [Example 1.19, rel-(1S,2R,4R or S)-4-hydroxy-2-methyl-4-[5-(4-methyl-6-{[6-(trifluoromethyl)pyrimidin-4-yl]amino}pyridin-2-yl)-1,3-thiazol-2-yl]cyclohexane-carboxamide]
2 | 1.1 | Cc1cc(Nc2nccc(OC(C)C)n2)cc(-c2cnc([C@@]3(O)CC[C@H](C(N)=O)C(C)(C)C3)s2)n1 (single isomer, unassigned) [Example 1.1, (1S,4R or 1R,4S)-4-hydroxy-4-(5-(4-((4-isopropoxypyrimidin-2-yl)amino)-6-methylpyridin-2-yl)thiazol-2-yl)-2,2-dimethylcyclohexanecarboxamide]
3 | 0.938 | Cc1cc(Nc2cc(C(F)(F)F)ncn2)nc(-c2cnc([C@@]3(O)CC[C@H](C(=O)O)[C@H](C)C3)s2)c1 (single isomer, unassigned) [Example 1.3, rel-(1S,2R,4R or S)-4-hydroxy-2-methyl-4-[5-(4-methyl-6-{[6-(trifluoromethyl)pyrimidin-4-yl]amino}pyridin-2-yl)-1,3-thiazol-2-yl] cyclohexane-carboxylic acid]
4 | 0.475 | Cc1cc(Nc2cc(C(F)(F)F)ncn2)nc(-c2cnc([C@@]3(O)CC[C@H](C(=O)O)[C@H](C)C3)s2)c1 (single isomer, unassigned) [Example 1.4, rel-(1S,2R,4R or S)-4-hydroxy-2-methyl-4-[5-(4-methyl-6-{[6-(trifluoromethyl)pyrimidin-4-yl]amino}pyridin-2-yl)-1,3-thiazol-2-yl]cyclohexane-carboxylic acid]
5 | 0.441 | Cc1cc(Nc2cc(C(F)(F)F)ncn2)nc(-c2cnc(C3(O)CCC(C(=O)O)C(C)(C)C3)s2)c1 (single isomer, unassigned) [Example 1.6, (1S,4R or 1R,4S)-4-hydroxy-2,2-dimethyl-4-[5-(4-methyl-6-{[6-(trifluoromethyl)pyrimidin-4-yl]amino}pyridin-2-yl)-1,3-thiazol-2-yl] cyclohexane-carboxylic acid]
6 | 2.62 | Cc1cc(Nc2cc(C(F)(F)F)ncn2)nc(-c2cnc(C3(O)CCC(C(=O)O)C(C)(C)C3)s2)c1 (single isomer, unassigned) [Example 1.7, (1S,4R or 1R,4S)-4-hydroxy-2,2-dimethyl-4-[5-(4-methyl-6-{[6-(trifluoromethyl)pyrimidin-4-yl]amino}pyridin-2-yl)-1,3-thiazol-2-yl] cyclohexane-carboxylic acid]
7 | 2.1 | Cc1cc(Nc2nccc(C(F)(F)F)n2)cc(-c2cnc(C3(O)CCC(C(=O)O)C(C)(C)C3)s2)n1 (single isomer, unassigned) [Example 1.9, (1S,4R or 1R,4S)-4-hydroxy-2,2-dimethyl-4-[5-(6-methyl-4-{[4-(trifluoromethyl)pyrimidin-2-yl]amino}pyridin-2-yl)-1,3-thiazol-2-yl] cyclohexane-carboxylic acid]
8 | 0.123 | Cc1cc(Nc2cc(C(F)(F)F)ccn2)nc(-c2cnc(C3(O)CCC(C(=O)O)C(C)(C)C3)s2)n1 (single isomer, unassigned) [Example 1.11, (1S,4R or 1R,4S)-4-hydroxy-2,2-dimethyl-4-[5-(4-methyl-6-{[4-(trifluoromethyl)pyridin-2-yl]amino}pyrimidin-2-yl)-1,3-thiazol-2-yl] cyclohexane-carboxylic acid]
9 | 0.698 | Cc1cc(Nc2cc(C(F)(F)F)ccn2)nc(-c2cnc(C3(O)CCC(C(=O)O)C(C)(C)C3)s2)n1 (single isomer, unassigned) [Example 1.12, (1S,4R or 1R,4S)-4-hydroxy-2,2-dimethyl-4-[5-(4-methyl-6-{[4-(trifluoromethyl)pyridin-2-yl]amino}pyrimidin-2-yl)-1,3-thiazol-2-yl]cyclohexane-carboxylic acid]
10 | 0.564 | CC1(C)CC(O)(c2ncc(-c3nccc(Nc4cc(C(F)(F)F)ccn4)n3)s2)CCC1C(=O)O (single isomer, unassigned) [Example 1.13, (1S,4R or 1R,4S)-4-hydroxy-2,2-dimethyl-4-[5-(4-{[4-(trifluoromethyl)pyridin-2-yl]amino}pyrimidin-2-yl)-1,3-thiazol-2-yl]cyclohexane-carboxylic acid]
11 | 12.1 | CC1(C)CC(O)(c2ncc(-c3nccc(Nc4cc(C(F)(F)F)ccn4)n3)s2)CCC1C(=O)O (single isomer, unassigned) [Example 1.14, 4-hydroxy-2,2-(1S,4R or 1R,4S)-dimethyl-4-[5-(4-{[4-(trifluoromethyl)pyridin-2-yl]amino}pyrimidin-2-yl)-1,3-thiazol-2-yl] cyclohexane-carboxylic acid]
12 | 1.25 | Cc1cc(Nc2cc(C(F)(F)F)ncn2)nc(-c2cnc(C3(O)CCC(C(N)=O)C(C)C3)s2)c1 (single isomer, unassigned) [Example 1.17, rel-(1S,2R,4R or S)-4-hydroxy-2-methyl-4-[5-(4-methyl-6-{[6-(trifluoromethyl)pyrimidin-4-yl]amino}pyridin-2-yl)-1,3-thiazol-2-yl] cyclohexane-carboxamide]
13 | 1.52 | Cc1cc(Nc2cc(C(F)(F)F)ncn2)nc(-c2cnc(C3(O)CCC(C(N)=O)C(C)C3)s2)c1 (single isomer, unassigned) [Example 1.18, rel-(1S,2R,4R or S)-4-hydroxy-2-methyl-4-[5-(4-methyl-6-{[6-(trifluoromethyl)pyrimidin-4-yl]amino}pyridin-2-yl)-1,3-thiazol-2-yl] cyclohexane-carboxamide]
14 | 0.289 | Cc1cc(Nc2nccc(C(F)(F)F)n2)cc(-c2cnc(C(C)(O)c3ccc(C(=O)O)cc3)s2)n1 (single isomer, unassigned) [Example 1.20, (R or S)-4-(1-hydroxy-1-(5-(6-methyl-4-((4-(trifluoromethyl)pyrimidin-2-yl)amino)pyridin-2-yl)thiazol-2-yl)ethl)benzoic acid]
15 | 5.91 | Cc1cc(Nc2nccc(C(F)(F)F)n2)cc(-c2cnc(C(C)(O)c3ccc(C(=O)O)cc3)s2)n1 (single isomer, unassigned) [Example 1.21, (R or S)-4-(1-hydroxy-1-(5-(6-methyl-4-((4-(trifluoromethyl)pyrimidin-2-yl)amino)pyridin-2-yl)thiazol-2-yl)ethyl)benzoic acid]
16 | 4200 | Cc1cc(Nc2cncc(C(F)(F)F)n2)cc(-c2cnc(C3(O)CCC(C(=O)O)C(C)(C)C3)s2)c1 (single isomer, unassigned) [Example 2.4, (1S,4R or 1R,4S)-4-hydroxy-2,2-dimethyl-4-[5-(3-methyl-5-{[6-(trifluoromethyl)pyrazin-2-yl]amino}phenyl)-1,3-thiazol-2-yl]cyclohexane-carboxylic acid]
17 | 2820 | Cc1cc(Nc2cccc(C(F)(F)F)n2)cc(-c2cnc(C3(O)CCC(C(=O)O)C(C)(C)C3)s2)c1 (single isomer, unassigned) [Example 2.5, (1S,4R or 1R,4S)-4-hydroxy-2,2-dimethyl-4-[5-(3-methyl-5-{[6-(trifluoromethyl)pyridin-2-yl]amino}phenyl)-1,3-thiazol-2-yl]cyclohexane-carboxylic acid]
18 | 0.0289 | Cc1cc(Nc2cnccn2)nc(-c2cnc(C3(O)CCCc4cc(C(=O)O)ccc43)s2)c1 (single isomer, unassigned) [Example 2.6, (R or S)-5-hydroxy-5-{5-[4-methyl-6-(pyrazin-2-ylamino)pyridin-2-yl]-1,3-thiazol-2-yl}-5,6,7,8-tetrahydronaphthalene-2-carboxylic acid]
19 | 0.516 | Cc1cc(Nc2cc(C(F)(F)F)ncn2)nc(-c2cnc(C3(O)CCCc4cc(C(=O)O)ccc43)s2)c1 (single isomer, unassigned) [Example 2.7, (R or S)-5-hydroxy-5-[5-(4-methyl-6-{[6-(trifluoromethyl)pyrimidin-4-yl]amino}pyridin-2-yl)-1,3-thiazol-2-yl]-5,6,7,8-tetrahydronaphthalene-2-carboxylic acid]
20 | 46.5 | Cc1cc(Nc2cccnn2)nc(-c2cnc(C3(O)CCCc4cc(C(=O)O)ccc43)s2)c1 (single isomer, unassigned) [Example 2.8, (R or S)-5-hydroxy-5-{5-[4-methyl-6-(pyridazin-3-ylamino)pyridin-2-yl]-1,3-thiazol-2-yl}-5,6,7,8-tetrahydronaphthalene-2-carboxylic acid]
21 | 0.212 | Cc1cc(Nc2cc(C)ncn2)nc(-c2cnc(C3(O)CCCc4cc(C(=O)O)ccc43)s2)c1 (single isomer, unassigned) [Example 2.9, (R or S)-5-hydroxy-5-(5-{4-methyl-6-[(6-methylpyrimidin-4-yl)amino]pyridin-2-yl}-1,3-thiazol-2-yl)-5,6,7,8-tetrahydronaphthalene-2-carboxlic acid]
22 | 1.12 | Cc1cc(Nc2cc(C3CCCCC3)ncn2)nc(-c2cnc(C3(O)CCCc4cc(C(=O)O)ccc43)s2)c1 (single isomer, unassigned) [Example 2.10, (R or S)-5-(5-{6-[(6-cyclohexylpyrimidin-4-yl)amino]-4-methylpyridin-2-yl}-1,3-thiazol-2-yl)-5-hydroxy-5,6,7,8-tetrahydronaphthalene-2-carboxylic acid]
